From a melting point compilation (Tetko et al.)

Row | SMILES | melting point
1 | C1CN2CCC1CC2 | 158 °C
2 | O=[N+]([O-])c1ccc(-c2nnc3n2NCS3)cc1 | 218 °C
3 | Nc1nncs1 | 191 °C
4 | N[C@H]1CC[C@@H](C(=O)O)CC1 | 300 °C
5 | O=C(NCc1ccccn1)C(F)(F)F | 75 °C
6 | CCOC(=O)c1cc2ccccc2cc1O | 80 to 81 °C
7 | O=C1OC(c2ccccc2)=NC1=Cc1ccccc1 | 167 °C
8 | COC(=O)c1sc(Br)c(Br)c1O | 129 to 131 °C
9 | NNC(=O)c1cccc(F)c1 | 138 to 139 °C
10 | CC(C)(C)OC(=O)N1CCC(C(N)=O)CC1 | 163 to 164 °C
11 | CC(C)[C@@H](N)C(=O)O | 302 to 303 °C
12 | CCN(CC)S(=O)(=O)c1ccc(C(=O)O)cc1 | 193 °C
13 | Clc1ccc(Br)cn1 | 70 °C
14 | O=C(Nc1ccc(Cl)cc1)Nc1ccc(Cl)c(C(F)(F)F)c1 | 214 °C
15 | CCC(=O)c1cccc(C(F)(F)F)c1 | 19 °C
16 | Nc1ncnc2c1ncn2C1CC(O)C(CO)O1 (stereo unspecified) | 185 to 187 °C
17 | Nc1ncnc2[nH]ncc12 | 325 °C
18 | OCc1cccc2c1OCCO2 | 54 to 55 °C
19 | O=C(O)C1CCCC1 | 4 °C
20 | O=c1[nH]c2ccc(Br)cc2c(=O)o1 | 285 to 290 °C
21 | CCCCCCCC[C@@H](O)CO | 60 to 62 °C
22 | CC(=O)c1ccc(C(C)=O)c([N+](=O)[O-])c1 | 46 °C
23 | ICCCCCI | 9 °C

Row | SMILES | melting point
24 | S=c1cc[nH]c(=S)[nH]1 | 279 to 281 °C
25 | COC(CCNC1=CC(=O)c2ccccc2C1=O)OC | 114 °C
26 | O=Cc1ccc(-n2cccn2)cc1 | 82 to 83 °C
27 | CC1(C)C2CC3C(c4ccccc4)(C2=C(c2ccccc2)c2ccccc2)C31C (stereo unspecified) | 164 °C
28 | N#C/C(=C/c1cccc(O)c1)c1nc2ccccc2c(=O)[nH]1 | 294 °C
29 | CC(=O)Nc1c(F)ccc([N+](=O)[O-])c1F | 148 to 149 °C
30 | CC1(C)OC[C@H](CC(N)=O)O1 | 108 to 109 °C
31 | Cc1c(NC(=O)c2cccnc2)c(=O)n(-c2ccccc2)n1C | 253 °C
32 | CCOc1ccc(NC(N)=O)cc1 | 173 °C
33 | CC(=O)OC1(C(C)=O)CCC2(C)C(CCC3C4CCC(O)C4(C)CCC32)C1 (stereo unspecified) | 193 °C
34 | c1ccc(-c2nnc3n2CN(c2ccccc2)CS3)cc1 | 205 °C
35 | [O-][P+](c1ccccc1)(c1ccccc1)C1C2=C(CCCC2)OC2=C1CCCC2 | 157 °C
36 | CC(=O)OC[C@@H](OC(C)=O)[C@H](OC(C)=O)[C@H](OC(C)=O)[C@@H](OC(C)=O)C(=O)CBr | 123 to 125 °C
37 | O=C1C=CC(=O)N1c1ccc(Cc2ccc(N3C(=O)C=CC3=O)cc2)cc1 | 155 to 159 °C
38 | CC(C)COC(=O)C(C)Oc1ccc(Oc2ccc(Cl)cc2)cc1 (stereo unspecified) | 39.5 °C
39 | O=Cc1c(Cl)[nH]n(-c2ccccc2)c1=O | 167 °C
40 | O=[N+]([O-])c1cccnc1NC1CC1 | 61 to 63 °C
41 | COc1ccc(C(=O)Cl)cc1 | 24.5 °C
42 | Cn1ccc2c(CO)cccc21 | 69 to 71 °C
43 | CC(=O)Oc1cccc(N=[N+]([O-])c2cccc(OC(C)=O)c2)c1 | 102 °C
44 | COc1ccc(C2C(C#N)=C(N)Oc3[nH]nc(C(F)(F)F)c32)cc1 (stereo unspecified) | 204 °C
45 | CC(C)C(NC(=O)C(C)(C)Br)C(C)C | 80 to 82 °C
46 | CCn1cc(C(=O)O)c(=O)c2cnc(N3CCCC3)nc21 | 315 °C

Row | SMILES | melting point
47 | CC(=O)C1(C)CCC2C3CCC4=CC(=O)CCC4=C3CCC21C (stereo unspecified) | 106 °C
48 | CC(=O)c1ccc(OC2OC(CO)C(O)C(O)C2O)cc1 (stereo unspecified) | 196 °C
49 | CNC(=O)N(C)c1nnc(C(F)(F)F)s1 | 136 °C
50 | FC(F)(F)c1cc(N=C=S)ccc1Cl | 34 to 36 °C
51 | Cc1c(Cl)cc(-c2ccc(=O)[nH]n2)cc1Cl | 252 °C
52 | ClCCC(Cl)Cl | -59 °C
53 | C=C1C(=O)C23C4CC5C(C)(C)CCC(OC(C)=O)C5(C)C2C(OC(C)=O)CC1(O)C3OC(C)(C)O4 (stereo unspecified) | 246 °C
54 | CC[Si](Cl)(Cl)Cl | -106 °C
55 | O=C(O)c1cnccc1Cl | 200 to 215 °C
56 | O=C(Cl)c1ccc2c(c1)OCCO2 | 100 to 101 °C
57 | O=[N+]([O-])c1ccc(C#Cc2ccc([N+](=O)[O-])cc2S(=O)(=O)Oc2ccccc2)c(S(=O)(=O)Oc2ccccc2)c1 | 185 to 186 °C
58 | OCCCC1CCCCC1 | -60 °C
59 | CCCCCCN1CC(C(=O)OC)CC1=O (stereo unspecified) | 4 °C
60 | COc1ccc2c(c1)N(CC(C)CN1CCC(O)CC1)c1ccccc1S2 (stereo unspecified) | 138 °C
61 | O=S1(=O)C=Cc2ccccc21 | 138 to 142 °C
62 | CC(=O)CC(=O)c1ccc2ccccc2c1 | 78 °C
63 | COc1cc2c(cc1O)CN(C1CC=CC(=O)C1)CC2 (stereo unspecified) | 254 to 257 °C
64 | Fc1cc(Br)c(Cl)c(Br)c1 | 86 °C
65 | CCCCC(C)CC (stereo unspecified) | -100 °C
66 | O=C(Nc1cc(Cl)ccc1Cl)C(C(F)(F)F)C(F)(F)F | 211 °C
67 | CC1CC=CC2C3OC3(C)C(C)C3C(Cc4ccccc4)NC(=O)C23OC(=O)OC=CC(C)(O)C1=O (stereo unspecified) | 206 °C
68 | Nc1nccc(-c2ccncc2)n1 | 81.3 °C
69 | OC1CN(C(c2ccccc2)c2ccccc2)C1 | 106 to 111 °C

Row | SMILES | melting point
70 | O=C1C=CC(=O)N1c1ccccc1N1C(=O)C=CC1=O | 245 to 248 °C
71 | OCCNC(=S)C(=S)NCCO | 93.3 °C
72 | Cn1c(C(F)(F)F)n[nH]c1=S | 116 to 118 °C
73 | Cc1ccc(C(=O)c2csc(S(N)(=O)=O)c2)cc1 | 176 °C
74 | O=[N+]([O-])c1cncn1CCN1CCOCC1 | 110 °C
75 | C=CCCCCCCCCCCCCCCCCC1CC(=O)OC1=O (stereo unspecified) | 67.2 °C
76 | O=c1nn[nH]c2ccccc12 | 223 °C
77 | BrCc1cccc(-c2ccsc2)c1 | 70 °C
78 | C=C1CC2C3C=C(C)C4=CC(=O)CCC4(C)C3CCC2(C)C1(OC(C)=O)C(C)=O (stereo unspecified) | 224 °C
79 | CC(CC(C)(C)C)CC(C)(C)C | -67 °C
80 | CCCCC(O)(Cn1cncn1)c1ccc(Cl)cc1Cl (stereo unspecified) | 111 °C
81 | CCCCCCCCCCCCCC(=O)Nc1ccccc1 | 82 to 87 °C
82 | COc1ccc(C=Nc2ccc(C3=NNC(=O)CC3)cc2)cc1 | 213 to 215 °C
83 | CCOC(=O)N1c2ccccc2C=CC1OCC (stereo unspecified) | 64.5 °C
84 | CN1c2ccccc2Sc2ccccc21 | 102 °C
85 | Cn1cc(NC(=O)OC(C)(C)C)cc1C(=O)O | 138 to 143 °C
86 | CC(=O)N(Nc1ccccc1)c1ccc(N=Nc2ccccc2)cc1 | 186 °C
87 | C=C/C=C/C=C | -12 °C
88 | COc1cc(/C=C/c2cc(C)cc(OC)c2O)ccc1O | 124 °C
89 | O=C(c1ccco1)c1nn2c(nc(=O)c3ccccc32)s1 | 325 °C
90 | CCOc1ccc2c3c1OC1C(O)C=CC4C(C2)N(C)CCC341 (stereo unspecified) | 200 °C
91 | Cn1c(=O)c(C2=NNC(=O)C2=Cc2ccccc2)c(O)c2ccccc21 | 283 °C
